Patent US8906913B2, “Azabicyclohexanes” (Panacea Biotec Limited, priority 2009, dated 2014)
Converted amounts (≈) assume the structure as drawn.

Key:
[1] = test system: Enterococcus faecalis ATCC 29212 Vancomycin Sensitive; test: In-vitro antibacterial activity, broth microdilution MIC; assay type: cell-based; details: ATCC29212, Table 7, E. faecalis vancomycin sensitive, broth microdilution, 35±2° C., 16-20 h, read-out: MIC ATCC 29212
Description: (§1) The in-vitro antibacterial activity of the compounds of the present invention (as described in Table 7) was determined by a broth microdilution following the guidelines prescribed by the Clinical and Laboratory Standards Institute (CLSI). This method is described in the CLSI Document M7-A7, Vol. 26, No. 2, “Methods for Dilution Antimicrobial Susceptibility Test for Bacteria that Grow Aerobically; Approved Standard-Seventh Edition”, which is incorporated herein by reference. Minimum Inhibitory Concentration (MIC) is defined as the minimum concentration of test compound which inhibits the growth of bacteria as visible or seen by the naked eye. This test can also be carried out by agar dilution method.
(§2) The compounds of the present invention were tested against a panel of standard microorganisms obtained from ATCC (American type culture collection). Linezolid was used as comparator in all the tests.
(§3) In the broth microdilution method, the compound was dissolved in dimethylsulfoxide and two fold serial dilutions were carried out in 96 well microtitre plates. The inoculum was prepared by adjusting the turbidity of actively growing broth culture and added to the wells to obtain a final bacterial count of ˜2-5×10^4 CFU/well. The microtitre plates were incubated at 35±2° C. for 16-20 h and then read visually.

[2] = test system: Staphylococcus aureus ATCC 29213 MSSA (Methicillin sensitive); test: as above; assay type: cell-based; details: Table 7, S. aureus MSSA, broth microdilution, 35±2° C., 16-20 h, read-out: MIC ATCC 29213
Description: as §1, §2, §3

[3] = test system: Enterococcus faecium ATCC 700221 VRE (Vancomycin resistant E. faecium); test: as above; assay type: cell-based; details: Table 7, broth microdilution, 35±2° C., 16-20 h, read-out: MIC ATTC 700221
Description: as §1, §2, §3

[4] = test system: Staphylococcus aureus ATCC 33591 MRSA (Methicillin resistant); test: as above; assay type: cell-based; details: Table 7, S. aureus MRSA, broth microdilution, 35±2° C., 16-20 h, read-out: MIC ATCC 33591
Description: as §1, §2, §3

male SWISS albino mice = test: Forced Swim Test; assay type: in vivo; details: Table 8, mice, oral, suspended in deionized water, 15 min before test; for inhibition in vivo at 32 mg/kg: Mus musculus, 0.25 h, read-out: % decrease in immobility time (dose 32 mg/kg)
Description: This test was conducted according to the method of Porsolt et al. (Porsolt, R. D., et al., Behavioural despair in mice: A primary screening test for antidepressants. Arch. in Pharmacodyn. Ther., 229, pp 327-336 (1977)).
A test compound was suspended in deionized water, unless otherwise specified, and this suspension was orally administered to male SWISS albino mice (7 to 9 week old). 15 min later, the mice were placed in a water tank having a water depth of 15 cm and a water temperature of 25±1° C. and immediately thereafter allowed to swim for 6 min. Then, a time during which the mouse was immobile (immobility time) was measured for the last 4 min.

SMILES	MIC [1]	MIC [2]	MIC [3]	MIC [4]	% decrease in immobility time (dose 64 mg/kg) (male SWISS albino mice)	inhibition in vivo at 32 mg/kg (male SWISS albino mice)
CC(=O)NC[C@H]1CN(c2ccc(C34CC3CN(C(=O)c3cn5cccnc5n3)C4)cc2)C(=O)O1 (some centres unmarked)	1 µg/mL (≈ 2.17 µM)	2 µg/mL (≈ 4.34 µM)	1 µg/mL (≈ 2.17 µM)	2 µg/mL (≈ 4.34 µM)	–	–
CCN1CC2CC2(c2ccc(N3CCN(c4ccccc4)CC3)cc2)C1 (centres unmarked)	–	–	–	–	65.8 ± 9.9%	–
COC(=O)N1CC2CC2(c2ccc(N3C[C@H](CNC(C)=O)OC3=O)cc2F)C1 (some centres unmarked)	0.5 µg/mL (≈ 1.28 µM)	1 µg/mL (≈ 2.55 µM)	0.5 µg/mL (≈ 1.28 µM)	0.5 µg/mL (≈ 1.28 µM)	–	–
CCN1C[C@H]2C[C@@]2(c2ccc(N3CCC(F)C3)cc2)C1 (some centres unmarked)	–	–	–	–	–	75.5 ± 12.9%
CC(=O)NC[C@H]1CN(c2ccc(N3CCOCC3)c(F)c2)C(=O)O1 [Linezolid, reference compound]	2 µg/mL (≈ 5.93 µM)	2 µg/mL (≈ 5.93 µM)	1 µg/mL (≈ 2.96 µM)	1 µg/mL (≈ 2.96 µM)	–	–
CCN1CC2CC2(c2ccc(N3CCC(F)C3)cc2)C1 (centres unmarked)	–	–	–	–	–	77.1 ± 11.2%
CCN1CC2CC2(c2ccc(N3CCC(F)CC3)cc2)C1 (centres unmarked)	–	–	–	–	–	62.8 ± 23.4%
CC(=O)NC[C@H]1CN(c2ccc(C34CC3CN(c3nccs3)C4)cc2)C(=O)O1 (some centres unmarked)	0.125 µg/mL (≈ 0.314 µM)	0.5 µg/mL (≈ 1.25 µM)	0.5 µg/mL (≈ 1.25 µM)	0.25 µg/mL (≈ 0.627 µM)	–	–
CC(=O)NC[C@H]1CN(c2ccc(C34CC3CN(c3ccccn3)C4)cc2)C(=O)O1 (some centres unmarked)	0.5 µg/mL (≈ 1.27 µM)	1 µg/mL (≈ 2.55 µM)	1 µg/mL (≈ 2.55 µM)	0.5 µg/mL (≈ 1.27 µM)	–	–
c1cc(C23CNCC2C3)ccc1N1CCOCC1 (centres unmarked) [drawing 510]	–	–	–	–	37.6 ± 14.5%	–
CCN1CC2C(COC)C2(c2ccc(N3CCOCC3)cc2)C1 (centres unmarked)	–	–	–	–	58.4 ± 10.1%	–
CC(=O)NC[C@H]1CN(c2ccc(C34CC3CN(c3nc5ccccc5s3)C4)cc2)C(=O)O1 (some centres unmarked)	1 µg/mL (≈ 2.23 µM)	1 µg/mL (≈ 2.23 µM)	0.25 µg/mL (≈ 0.557 µM)	0.5 µg/mL (≈ 1.11 µM)	–	–
CCN1CC2CC2(c2ccc(N3CCCC3)cc2)C1 (centres unmarked) [drawing 519]	–	–	–	–	–	99.9 ± 0.1%
CCN1C[C@@H]2C[C@]2(c2ccc(N3CC(C)OC(C)C3)cc2)C1 (some centres unmarked)	–	–	–	–	–	80.9 ± 8.7%
CCN1C[C@H]2C[C@@]2(c2ccc(N3CCCC3)cc2)C1	–	–	–	–	–	97.7 ± 2.3%
CC(=O)N1CC2CC2(c2ccc(N3C[C@H](Cn4ccnn4)OC3=O)cc2)C1 (some centres unmarked)	2 µg/mL (≈ 5.44 µM)	1 µg/mL (≈ 2.72 µM)	1 µg/mL (≈ 2.72 µM)	2 µg/mL (≈ 5.44 µM)	–	–

Second part, led by results:

MIC [1]	MIC [2]	MIC [3]	MIC [4]	SMILES	% decrease in immobility time (dose 64 mg/kg) (male SWISS albino mice)	inhibition in vivo at 32 mg/kg (male SWISS albino mice)
0.5 µg/mL (≈ 1.12 µM)	2 µg/mL (≈ 4.49 µM)	0.5 µg/mL (≈ 1.12 µM)	1 µg/mL (≈ 2.24 µM)	CCOC(=O)OCC(=O)N1CC2CC2(c2ccc(N3C[C@H](CNC(C)=O)OC3=O)cc2)C1 (some centres unmarked)	–	–
0.5 µg/mL (≈ 1.34 µM)	0.5 µg/mL (≈ 1.34 µM)	0.5 µg/mL (≈ 1.34 µM)	0.5 µg/mL (≈ 1.34 µM)	CC(=O)NC[C@H]1CN(c2ccc(C34CC3CN(C(=O)CO)C4)cc2)C(=O)O1 (some centres unmarked)	–	–
2 µg/mL (≈ 4.86 µM)	2 µg/mL (≈ 4.86 µM)	1 µg/mL (≈ 2.43 µM)	2 µg/mL (≈ 4.86 µM)	CC(=O)NC[C@H]1CN(c2ccc(C34CC3CN(C(=O)C(F)(F)F)C4)cc2)C(=O)O1 (some centres unmarked)	–	–
0.5 µg/mL (≈ 1.29 µM)	4 µg/mL (≈ 10.4 µM)	0.25 µg/mL (≈ 0.647 µM)	1 µg/mL (≈ 2.59 µM)	CC(=O)NC[C@H]1CN(c2ccc(C34CC3CN(C(=O)N(C)C)C4)cc2)C(=O)O1 (some centres unmarked)	–	–
2 µg/mL (≈ 5.36 µM)	2 µg/mL (≈ 5.36 µM)	1 µg/mL (≈ 2.68 µM)	1 µg/mL (≈ 2.68 µM)	COC(=O)N1CC2CC2(c2ccc(N3C[C@H](CNC(C)=O)OC3=O)cc2)C1 (some centres unmarked)	–	–
2 µg/mL (≈ 5.6 µM)	2 µg/mL (≈ 5.6 µM)	2 µg/mL (≈ 5.6 µM)	1 µg/mL (≈ 2.8 µM)	CC(=O)NC[C@H]1CN(c2ccc(C34CC3CN(C(C)=O)C4)cc2)C(=O)O1 (some centres unmarked) [drawing 482]	–	–
1 µg/mL (≈ 2.68 µM)	1 µg/mL (≈ 2.68 µM)	0.5 µg/mL (≈ 1.34 µM)	0.5 µg/mL (≈ 1.34 µM)	COC(=O)N1C[C@@H]2C[C@]2(c2ccc(N3C[C@H](CNC(C)=O)OC3=O)cc2)C1	–	–
2 µg/mL (≈ 5.36 µM)	2 µg/mL (≈ 5.36 µM)	1 µg/mL (≈ 2.68 µM)	1 µg/mL (≈ 2.68 µM)	COC(=O)NC[C@H]1CN(c2ccc(C34CC3CN(C(C)=O)C4)cc2)C(=O)O1 (some centres unmarked)	–	–
2 µg/mL (≈ 5.08 µM)	2 µg/mL (≈ 5.08 µM)	1 µg/mL (≈ 2.54 µM)	1 µg/mL (≈ 2.54 µM)	CC(=O)NC[C@H]1CN(c2ccc(C34CC3CN(S(C)(=O)=O)C4)cc2)C(=O)O1 (some centres unmarked)	–	–
2 µg/mL (≈ 4.83 µM)	4 µg/mL (≈ 9.65 µM)	4 µg/mL (≈ 9.65 µM)	4 µg/mL (≈ 9.65 µM)	CC(=O)NCC(=O)N1CC2CC2(c2ccc(N3C[C@H](CNC(C)=O)OC3=O)cc2)C1 (some centres unmarked)	–	–
